Key:
Psoriasis mouse model [1] = assay: IL-23 psoriasis mouse model, Compound 1 by subcutaneous or intradermal injection, symptom score; format: in vivo, mice; conditions: for symptom score: 4 consecutive days, scored on Day 6, scale 0-5
Description: (§1) Psoriasis mouse model was established by intradermal injection of recombinant […] (1 ng/20 μL PBS, per mouse per day for 4 consecutive days) into depilated mice on the back.
On Day 2 after modeling, the psoriasis model mice were randomly divided into 3 groups, with the same number of mice in each group, and divided into a model group, treatment group (the treatment group included a subcutaneous treatment group and an intradermal treatment group), with the model group as a control. […] The model group was injected with 20 μL of normal saline intradermally. All three groups were injected for 4 consecutive days. On Day 6, the symptoms of the model and treatment groups were scored.
(§2) The calculation rule for the number of days was: the number of days will be calculated from the end of modeling, which will be recorded as Day 0, followed by Day 1, Day 2, etc.
(§3) Scoring criteria: 0 points, no symptom; 1 point, skin erythema; 2 points, scattered scurf, 3 points, diffuse dandruff, 4 points, skin sclerosis; 5 points, erythroderma or death.

Psoriasis mouse model [2] = assay: IL-23 psoriasis mouse model, comparative efficacy of Compound 1 ointment and Flecainide ointment, symptom score; format: in vivo, mice; conditions: 0.1% ointment; for therapeutic effect compared to the model group: 30 mg applied on the back for 4 consecutive days
Description: as §1
Each group was applied with different substances (as shown in Table 1) on the backs of the mice for 4 consecutive days. The symptoms of the model mice and the treatment group mice were scored from Day 1.
The calculation rule or the number of days was: the number of days will be calculated from the end of modeling, which will be recorded as Day 0, followed by Day 1, Day 2, etc.
The formulation and preparation method of Flecainide ointment can be referred to as Example 4, which differed from Example 4 only in that the main drug was replaced with an equivalent amount of Flecainide (wherein the mass concentration of flecainide in the flecainide ointment was 0.1%).
as §3

Psoriasis mouse model [3] = conditions: ointment 30 mg applied for 4 consecutive days, scored on Day 6; 0.01%, 0.1%, 0.2%, 0.5%, 1% tested
Description: as §1, §2, §3

Psoriasis mouse model [4] = conditions: 0.025% ointment, 200 mg applied on the back for 6 consecutive days
Description: Psoriasis mouse model was established by intradermal injection of recombinant TL-23 (1 ng/20 μL PBS, per mouse per day for 4 consecutive days) into depilated mice on the back.
Each group was applied with different substances (as shown in Table 3) on the backs of the mice for 6 consecutive days. From Day 1, the symptoms of the back skin of the model mice and the mice in the treatment group were scored every day.

[5] = 30 mg applied on the back, scale 0-5

CCCNCC(O)COc1ccccc1C(=O)CCc1ccccc1 (stereo not drawn) [Compound 1, propafenone]
therapeutic effect in dosing explorations (Psoriasis mouse model [1]; intracutaneous injections at 10 μg, 20 μg, 50 μg, 100 μg, 200 μg, 500 μg, 1 mg, 2 mg, 5 mg and 10 mg): had therapeutic effects | symptom score (Psoriasis mouse model [1]; intradermal injection on the back, 0.07 mg per mouse per day): ~2 points | therapeutic effect compared with the model group and the subcutaneous treatment group (Psoriasis mouse model [1]; intradermal injection, 0.07 mg per mouse per day, Day 6): significant therapeutic effect | symptom score (Psoriasis mouse model [1]; subcutaneous injection on the back, 0.07 mg per mouse per day): ~3 points | therapeutic effect compared to the model group (Psoriasis mouse model [2]): significant therapeutic effect | symptom score on Day 2 (Psoriasis mouse model [2]; [5]): 2 points | symptom score on Days 3 to 4 (Psoriasis mouse model [2]; 30 mg applied on the back, Days 3 to 4, scale 0-5): 3 points | symptom score on Days 7 and 8 (Psoriasis mouse model [2]; 30 mg applied on the back, Days 7 and 8, scale 0-5): 1 points | symptom score from Day 5 (Psoriasis mouse model [2]; 30 mg applied on the back, from Day 5, scale 0-5): ≤ 2 points | effective window dose of ointment (mass concentration) compared to the model group (Psoriasis mouse model [3]): 0.1%-0.5%

CCCNC[C@H](O)COc1ccccc1C(=O)CCc1ccccc1 [Compound 2, S-propafenone]
treatment effect (Psoriasis mouse model [4]): showed no treatment effect

CCCNC[C@@H](O)COc1ccccc1C(=O)CCc1ccccc1 [Compound 3, R-propafenone]
treatment effect (Psoriasis mouse model [4]): the treatment effect was more obvious

O=C(NCC1CCCCN1)c1cc(OCC(F)(F)F)ccc1OCC(F)(F)F (stereo not drawn) [Flecainide]
therapeutic effect compared to the model group (Psoriasis mouse model [2]): neither the Flecainide ointment nor the ointment alone had a therapeutic effect | symptom score on Day 2 (Psoriasis mouse model [2]; [5]): 3 points | symptom score on Days 2 to 7 (Psoriasis mouse model [2]; 30 mg applied on the back, Days 2 to 7, scale 0-5): 3 points

Reference: patent publication US20260263391A1, “COMPOUND AND USE THEREOF” (BENETHERA (SHAOXING) BIOTECHNOLOGY CO., LTD., priority 2023, published 2026)
